Drawing on ChEMBL document CHEMBL1126853, “A series of penicillin-derived C2-symmetric inhibitors of HIV-1 proteinase: structural and modeling studies” (J Med Chem, 1993), this text covers IC50 for 7 molecules.

This assay addresses Human immunodeficiency virus type 1 protease (Human immunodeficiency virus 1, UniProt Q72874). The assay is described as follows: Inhibitory activity against HIV-1 Protease.

With `CC1(C)S[C@H]([C@H](NC(=O)Cc2ccccc2)C(=O)NCc2ccccc2)NC1C(=O)NCCCNC(=O)[C@@H]1N[C@@H]([C@H](NC(=O)Cc2ccccc2)C(=O)NCc2ccccc2)SC1(C)C` (some centres not stated), the IC50 (as a rule, the concentration that gives 50% inhibition) was determined as 540 nM.

Regarding `CCNC(=O)[C@@H](NC(=O)c1ccccc1)[C@@H]1NC(C(=O)NCCNC(=O)[C@@H]2N[C@@H]([C@H](NC(=O)c3ccccc3)C(=O)NCC)SC2(C)C)C(C)(C)S1` (some centres not stated), the IC50 is 390 nM.

As for `CCNC(=O)[C@@H](NC(=O)Cc1ccccc1)[C@@H]1NC(C(=O)NCCNC(=O)[C@@H]2N[C@@H]([C@H](NC(=O)Cc3ccccc3)C(=O)NCC)SC2(C)C)C(C)(C)S1` (some centres not stated), the 50% inhibitory concentration (IC50) amounted to 3 nM. The value for `CCNC(=O)[C@@H](NC(=O)c1c(-c2ccccc2)noc1C)[C@@H]1NC(C(=O)NCCNC(=O)[C@@H]2N[C@@H]([C@H](NC(=O)c3c(-c4ccccc4)noc3C)C(=O)NCC)SC2(C)C)C(C)(C)S1` (some centres not stated) was 5.4 nM; that for `CCNC(=O)[C@@H](NC(=O)c1ccccc1-c1ccccc1)[C@@H]1NC(C(=O)NCCNC(=O)[C@@H]2N[C@@H]([C@H](NC(=O)c3ccccc3-c3ccccc3)C(=O)NCC)SC2(C)C)C(C)(C)S1` (some centres not stated) was 9.9 nM. Molecule `CC1(C)S[C@H]([C@H](NC(=O)Cc2ccccc2)C(=O)NCc2ccccc2)NC1C(=O)NCC(O)CNC(=O)[C@@H]1N[C@@H]([C@H](NC(=O)Cc2ccccc2)C(=O)NCc2ccccc2)SC1(C)C` (some centres not stated) showed an IC50 of 5 nM. In the case of `CC1(C)S[C@H]([C@H](NC(=O)Cc2ccccc2)C(=O)NCC(F)(F)F)NC1C(=O)NCCNC(=O)[C@@H]1N[C@@H]([C@H](NC(=O)Cc2ccccc2)C(=O)NCC(F)(F)F)SC1(C)C` (some centres not stated) it was 4.4 nM.
